Structures can show the parent of a compound that is named as a salt.
Molecular target: T1, hGzmK (human GzmK) (Homo sapiens, UniProt P49863)
T1 construct: commercial, Enzo Life Sciences
T1 sequence (P49863 27-264): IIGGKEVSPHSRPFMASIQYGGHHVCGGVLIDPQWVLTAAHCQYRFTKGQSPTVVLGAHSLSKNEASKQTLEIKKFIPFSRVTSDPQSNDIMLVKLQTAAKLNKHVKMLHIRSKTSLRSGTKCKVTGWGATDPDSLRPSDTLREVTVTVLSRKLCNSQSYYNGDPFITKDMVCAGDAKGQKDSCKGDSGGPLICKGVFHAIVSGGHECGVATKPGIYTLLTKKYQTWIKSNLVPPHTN
Assay: thioester hydrolysis with DTNB, used to normalise enzyme units
Assay type: biochemical
Details: Tris-HCl pH 8.5, 37 °C

NCCCC[C@H](NC(=O)OCc1ccccc1)C(=O)SCc1ccccc1 [Nα-CBZ-L-Lysine thiobenzyl ester hydrochloride]
thioester hydrolysis with DTNB, used to normalise enzyme units: activity of the different trypsin-like proteases was equated using a common substrate

— paper PMC11092195, “Selective Detection of Active Extracellular Granzyme A by Using a Novel Fluorescent Immunoprobe with Application to Inflammatory Diseases” (ACS Pharmacology & Translational Science, 2024)
